Experimental data taken from patent US20230174939A1, “NOVEL ANUCLEATED CELLS AS A SOURCE FOR TREATMENT OF PLATELET RICH PLASMA DEPENDENT DISORDERS” (Stellular Bio, Inc., priority 2020, published 2023).

Assay: Body weight of rats on treatment in MIA osteoarthritis study
Format: in vivo, Sprague Dawley rats
Conditions: oral, positive control; treatment stopped early in the study
Method: Groups of 20 male Sprague Dawley rats were given a 2 mg intra-articular injection of MIA into the right knee on day 0. On day 18, rats were treated with a single dose of plasmalyte buffer (negative control), PLCs, PLC lysate, or human PRP by intra-articular injection into the right knee.

In the case of `C[C@@H]1C[C@H]2[C@@H]3CCC4=CC(=O)C=C[C@]4(C)[C@@]3(F)[C@@H](O)C[C@]2(C)[C@@]1(O)C(=O)CO` [dexamethasone], the “body weight on treatment” value is reported as “began to lose weight”.
